# Assay results from article PMC12508156, “Non-canonical dihydrolipoyl transacetylase promotes chemotherapy resistance via mitochondrial tetrahydrofolate signaling” (Nature Communications, 2025).
# Several values for one entry are separate records, joined by “and”; a condition that tells them apart may be missing. Equal entries are not always repeated.
# Assays:
# Assay type in all cases: cell-based, human
# [1] = system: H1299 cells; experiment: Apoptotic cell death (annexin V/PI staining); conditions: cisplatin 5 μg/ml, 48 h, n=1-3: biological replicates
# [2] = system: protein synthesis; experiment: Global protein synthesis (O-propargyl-puromycin)
# Method: (§1) Cellular metabolic states were examined through various assays. To gauge the levels of total intracellular or mitochondrial reactive oxygen species (ROS), cells were stained with CM-H2DCFDA or mitoSOX, respectively. Intracellular H2O2, NADPH, acetyl-CoA, and GSH/GSSG ratios were quantified using commercial assay kits as listed in the Reagents. Intracellular ATP levels were determined utilizing the ATP bioluminescent somatic cell assay and normalized to the total protein concentrations. The de novo synthesized RNA and proteins were assessed in cancer cells using commercial assays following the manufacturer’s protocols. In brief, O-propargyl-puromycin or uridine analog, 5-EU, was applied to stop translation or modify RNA. Polypeptides or modified RNA were measured using fluorescent azide with Ex/Em at 494/521 nm. PDC activity was determined by measuring the reduction of NAD+ to NADH during the conversion of pyruvate into acetyl-CoA.
# [3] = system: cellular ROS; experiment: Cellular ROS level (CM-H2DCFDA staining)
# Method: as §1
# [4] = system: A549cisR cells; experiment: Colony formation assay; conditions: 2 μg/ml cisplatin 24 h, then 10 days, normalised, n=1-3: biological replicates
# Method: (§2) Cell viability was determined using the CellTiter-Glo Luminescent Cell Viability Assay. […] Subsequently, the cells were cultured in complete medium for an additional 10 days, and the resulting colonies were visualized by staining with crystal violet and quantified using ImageJ software. For cell cycle analysis, cells fixed with 70% ethanol were stained with RNase A (100 µg/mL) and propidium iodide (50 μg/ml) for 30 min at 37 °C, and DNA content distribution was measured using flow cytometry (BD Symphony A3) and analyzed with FlowJo software (v10.9). Apoptotic cell death was assessed via FITC-conjugated annexin V and propidium iodide staining.
# [5] = system: KB-3-1cisR cells; experiment: Colony formation assay; conditions: 5 μg/ml cisplatin 24 h, then 10 days, normalised, n=1-3: biological replicates
# Method: as §2
compound,measurement,setting,value
N.N.[Cl][Pt][Cl] [cisplatin],Apoptotic death,[1]; H1299 pLKO.1,12.41
same,Apoptotic death,[1]; H1299 shDLAT #1,23.45 and 22.74
same,Apoptotic death,[1]; H1299 shDLAT #2,18.43
same,Global protein synthase,"[2]; A549cisR, pLKO.1, n=1 (Figure 3B)",73.5
same,Global protein synthase,"[2]; A549cisR, pLKO.1, n=2 (Figure 3B)",70.6
same,Global protein synthase,"[2]; A549cisR, pLKO.1, n=3 (Figure 3B)",67.1
same,Global protein synthase,"[2]; A549cisR, shDLAT, n=1 (Figure 3B)",76.2
same,Global protein synthase,"[2]; A549cisR, shDLAT, n=2 (Figure 3B)",75.5
same,Global protein synthase,"[2]; A549cisR, shDLAT, n=3 (Figure 3B)",73.3
same,Global protein synthase,"[2]; KB-3-1cisR, pLKO.1, n=1 (Figure 3B)",101
same,Global protein synthase,"[2]; KB-3-1cisR, pLKO.1, n=2 (Figure 3B)",98.7
same,Global protein synthase,"[2]; KB-3-1cisR, pLKO.1, n=3 (Figure 3B)",101
same,Global protein synthase,"[2]; KB-3-1cisR, shDLAT, n=1 (Figure 3B)",92.8
same,Global protein synthase,"[2]; KB-3-1cisR, shDLAT, n=2 (Figure 3B)",100
same,Global protein synthase,"[2]; KB-3-1cisR, shDLAT, n=3 (Figure 3B)",92.4
same,ROS level,"[3]; A549cisR cells, pLKO.1, n=1",0.9837
same,ROS level,"[3]; A549cisR cells, pLKO.1, n=2",1.0031
same,ROS level,"[3]; A549cisR cells, pLKO.1, n=3",1.0132
same,ROS level,"[3]; A549cisR, CTL, sheet Figure 5G, replicate n=1",1.052
same,ROS level,"[3]; A549cisR, CTL, sheet Figure 5G, replicate n=2",0.9938
same,ROS level,"[3]; A549cisR, CTL, sheet Figure 5G, replicate n=3",0.9539
same,ROS level,"[3]; KB-3-1cisR cells, pLKO.1, n=1",1.037
same,ROS level,"[3]; KB-3-1cisR cells, pLKO.1, n=2",0.9651
same,ROS level,"[3]; KB-3-1cisR cells, pLKO.1, n=3",0.9984
same,ROS level,"[3]; KB-3-1cisR cells, shDLAT, n=1",2.065
same,ROS level,"[3]; KB-3-1cisR cells, shDLAT, n=2",2.047
same,ROS level,"[3]; KB-3-1cisR, CTL, sheet Figure 5G, replicate n=1",0.9879
same,ROS level,"[3]; KB-3-1cisR, CTL, sheet Figure 5G, replicate n=2",1.001
same,ROS level,"[3]; KB-3-1cisR, CTL, sheet Figure 5G, replicate n=3",1.011
same,ROS level,"[3]; KB-3-1cisR, shDLAT+Flag-MTHFD2 (K44Q), sheet Figure 5G, replicate n=1",1.351
same,ROS level,"[3]; KB-3-1cisR, shDLAT+Flag-MTHFD2 (K44Q), sheet Figure 5G, replicate n=2",1.32
same,Colony formation assay,[4]; A549cisR pLKO.1,1.111 and 0.9965 and 1.059
same,Colony formation assay,[4]; A549cisR shDLAT #1,0.545 and 0.5035 and 0.4723
same,Colony formation assay,[4]; A549cisR shDLAT #2,0.5398 and 0.5242 and 0.4931
same,Colony formation assay,[5]; KB-3-1cisR pLKO.1,0.9446 and 0.763 and 0.8564
same,Colony formation assay,[5]; KB-3-1cisR shDLAT #1,0.1843 and 0.1505 and 0.2102
same,Colony formation assay,[5]; KB-3-1cisR shDLAT #2,0.2154 and 0.1946 and 0.1246
